Reference: patent US8269000B2, “Substituted pyrimidine and triazine compounds” (Gruenenthal GmbH, priority 2008, dated 2012)

What follows are compounds tested against T1, rat B1R (Rattus norvegicus, UniProt P97583) (assay: FLIPR Ca2+ functional study on bradykinin receptor 1 (rB1R CHO K1 cells)). Conditions: % inhibition rat B1R at 10 μM.
T1 construct: expressed in transfected cells; host or cells: CHO K1 cells
T1 sequence (P97583 1-337): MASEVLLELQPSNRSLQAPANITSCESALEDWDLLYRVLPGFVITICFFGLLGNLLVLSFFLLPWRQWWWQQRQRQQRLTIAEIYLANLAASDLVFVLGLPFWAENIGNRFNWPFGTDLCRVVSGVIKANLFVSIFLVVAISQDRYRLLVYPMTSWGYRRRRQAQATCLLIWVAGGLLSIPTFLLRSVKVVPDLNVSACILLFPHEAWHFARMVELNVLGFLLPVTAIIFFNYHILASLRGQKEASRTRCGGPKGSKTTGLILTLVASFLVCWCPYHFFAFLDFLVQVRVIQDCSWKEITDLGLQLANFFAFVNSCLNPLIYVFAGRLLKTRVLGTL
Type: cell-based
Procedure, shortened: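 Antagonism was calculated as % of maximal inhibition of the Ca2+ rise triggered by agonist at EC80 (Lys-Des-Arg9-bradykinin for hB1R, Des-Arg9-bradykinin for rB1R), added 10-20 min after test compound (10 μM or serial dilutions for IC50) to Fluo-4-loaded transfected CHO K1 cells on FLIPR. Duplicates or triplicates, ≥2 independent runs.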
With `COc1cc(C)c(S(=O)(=O)N2c3ccccc3C[C@H]2COc2ccnc(N3CCC(CCN4CCCC4)CC3)n2)c(C)c1` [H_CC-017, (2S)-1-(4-methoxy-2,6-dimethylphenyl)sulfonyl-2-[[2-[4-(2-1-pyrrolidinylethyl)-1-pipendinyl]-4-pyrimidinyl]oxymethyl]indoline] the “% inh. (rat B1R) 10 μM” value was 93%. `COc1cc(C)c(S(=O)(=O)N2c3ccccc3C[C@H]2COc2ccnc(N3CCC(N4CCN(C)CC4)CC3)n2)c(C)c1` [H_CC-018, (2S)-1-(4-methoxy-2,6-dimethylphenyl)sulfonyl-2-[[2-[4-(4-methyl-1-piperazinyl)-1-pipendinyl]-4-pyrimidinyl]oxymethyl]indoline] was tested, and the “% inh. (rat B1R) 10 μM” value was 91%. `COc1cc(C)c(S(=O)(=O)N2c3ccccc3C[C@H]2COc2ccnc(N3CCN(CC4CCN(C)CC4)CC3)n2)c(C)c1` [H_CC-020, (2S)-1-(4-methoxy-2,6-dimethylphenyl)sulfonyl-2-[[2-[4-[(1-methyl-4-pipendinyl)methyl]-1-piperazinyl]-4-pyrimidinyl]oxymethyl]indoline] was tested, and the “% inh. (rat B1R) 10 μM” value was 93%. `COc1cc(C)c(S(=O)(=O)N2CCCCC2COc2ccnc(N3CCC(CCN4CCCCC4)CC3)n2)c(C)c1` (centres unmarked) [H_CC-022] was tested, and the “% inh. (rat B1R) 10 μM” value was 77%. With `COc1cc(C)c(S(=O)(=O)N2CCC[C@H]2COc2ccnc(N3CCC4(CC3)C(=O)NCN4c3ccccc3)n2)c(C)c1` [H_CC-024, 8-[4-[[(2S)-1-(4-methoxy-2,6-dimethylphenyl)sulfonyl-2-pyrrlidinyl]methoxy]-2-pyrimidinyl]-4-phenyl-2,4,8-triazaspiro[4.5]decan-1-one] the “% inh. (rat B1R) 10 μM” value was 97%. With `COc1cc(C)c(S(=O)(=O)N2CCC[C@H]2COc2ccnc(N3CCN(C4CCN(C)CC4)CC3)n2)c(C)c1` [H_CC-025, 4-[[(2S)-1-(4-methoxy-2,6-dimethylphenyl)sulfonyl-2-pyrrlidinyl]methoxy]-2-[4-(1-methyl-4-piperidinyl)-1-piperazinyl]pyrimidine] the “% inh. (rat B1R) 10 μM” value was 65%. `COc1cc(C)c(S(=O)(=O)N2CCC[C@H]2COc2ccnc(N3CCC(CCN4CCCCC4)CC3)n2)c(C)c1` [H_CC-026, 4-[[(2S)-1-(4-methoxy-2,6-dimethylphenyl)sulfonyl-2-pyrrlidinyl]methoxy]-2-[4-[2-(1-piperidyl)ethyl]-1-piperidinyl]pyrimidine] was tested, and the “% inh. (rat B1R) 10 μM” value was 75%. In the case of `COc1cc(C)c(S(=O)(=O)N2CCC[C@@H]2COc2ccnc(N3CCCN(Cc4ccccn4)CC3)n2)c(C)c1` [H_CC-043, 1-[4-[[(2R)-1-[(4-methoxy-2,6-dimethyl-phenyl)sulfonyl]-pyrrolidin-2-yl]-methoxy]-pyrimidin-2-yl]-4-(pyridin-2-yl-methyl)-[1,4]diazepam], the “% inh. (rat B1R) 10 μM” value was 80%.

Same assay, conditions: CHO-K1, % inhibition rat B1R at 10 μM, read-out: % inh. (rat B1R) 10 μM
Compound `COc1cc(C)c(S(=O)(=O)N2c3ccccc3C[C@H]2COc2ccnc(N3CCN(c4ccncc4)CC3)n2)c(C)c1` [H_CC-019, (2S)-1-(4-methoxy-2,6-dimethylphenyl)sulfonyl-2-[[2-[4-(4-pyridyl)-1-piperazinyl]-4-pyrimidinyl]oxymethyl]indoline] has an inhibition at 10 µM of 98%. With `COc1cc(C)c(S(=O)(=O)N2CCCCC2COc2ccnc(N3CCC4(CCN(Cc5ccccc5)C4)C3)n2)c(C)c1` (centres unmarked) [H_CC-021, 3-benzyl-7-[4-[[1-(4-methoxy-2,6-dimethylphenyl)sulfonyl-2-piperidinyl]methoxy]-2-pyrimidinyl]-3,7-diazaspiro[4.4]nonane] the inhibition at 10 µM was 62%. In the case of `COc1cc(C)c(S(=O)(=O)N2CCC[C@H]2COc2ccnc(N3CCC4(CCN(Cc5ccccc5)C4)C3)n2)c(C)c1` (stereo partly drawn) [H_CC-023, 3-benzyl-7-[4-[[(2S)-1-(4-methoxy-2,6-dimethylphenyl)sulfonyl-2-pyrrolidinyl]methoxy]-2-pyrimidinyl]-3,7-diazaspiro[4.4]nonane], the inhibition at 10 µM was 76%. `COc1cc(C)c(S(=O)(=O)N2c3ccccc3C[C@H]2COc2ccnc(N3CCN(C4CCN(C)CC4)CC3)n2)c(C)c1` [H_CC-027, (2S)-1-(4-methoxy-2,6-dimethylphenyl)sulfonyl-2-[[2-[4-(1-methyl-4-piperidinyl)-1-piperazinyl]-4-pyrimidinyl]oxymethyl]indoline] gave an inhibition at 10 µM of 91%. `COc1cc(C)c(S(=O)(=O)N2c3ccccc3C[C@H]2COc2ccnc(N3CCC(CCN4CCCCC4)CC3)n2)c(C)c1` [H_CC-028, (2S)-1-(4-methoxy-2,6-dimethylphenyl)sulfonyl-2-[[2-[4-[2-(1-piperidyl)ethyl]-1-piperidinyl]-4-pyrimidinyl]oxymethyl]indoline] was tested, and the inhibition at 10 µM was 83%. In the case of `COc1cc(C)c(S(=O)(=O)N2CCCCC2COc2ccnc(N3CCC4(CCN(Cc5ccc(F)cc5)C4=O)CC3)n2)c(C)c1` (centres unmarked) [H_CC-030, 3-[(4-fluorophenyl)methyl]-8-[4-[[1-(4-methoxy-2,6-dimethylphenyl)sulfonyl-2-piperidinyl]methoxy]-2-pyrimidinyl]-3,8-diazaspiro[4.5]decan-4-one], the inhibition at 10 µM was 49%. `COc1cc(C)c(S(=O)(=O)N2CCCCC2COc2ccnc(N3CCC(CNC(=O)c4ccncc4)(N4CCN(C)CC4)CC3)n2)c(C)c1` (centres unmarked) [H_CC-031, N-[[1-[4-[[1-(4-methoxy-2,6-dimethylphenyl)sulfonyl-2-piperidinyl]methoxy]-2-pyrimidinyl]-4-(4-methyl-1-piperazinyl)-4-piperidinyl]methyl]-4-pyridinecarboxamide] gave an inhibition at 10 µM of 56%. For `COc1cc(C)c(S(=O)(=O)N(C)CCOc2ccnc(N3CCC(OCCN4CCCC4)(c4cccnc4)CC3)n2)c(C)c1` [H_CC-033, 4-methoxy-N,2,6-trimethyl-N-[2-[[2-[4-(3-pyridyl)-4-(2-1-pyrrolidinylethoxy)-1-piperidinyl]-4-pyrimidinyl]oxy]ethyl]benzenesulfonamide], the inhibition at 10 µM was 82%. With `COc1cc(C)c(S(=O)(=O)N(C)CCOc2ccnc(N3CC4CC3CN4Cc3ccncc3)n2)c(C)c1` (centres unmarked) [H_CC-034, 4-methoxy-N,2,6-trimethyl-N-[2-[[2-[2-(4-pyridylmethyl)-2,5-diazabicyclo[2.2.1]heptan-5-yl]-4-pyrimidinyl]oxy]ethyl]benzenesulfonamide] the inhibition at 10 µM was 74%. For `COc1cc(C)c(S(=O)(=O)N2CCCCC2COc2ccnc(N3CCC(OCCN4CCCC4)(c4cccnc4)CC3)n2)c(C)c1` (centres unmarked) [H_CC-035, 4-[[1-(4-methoxy-2,6-dimethylphenyl)sulfonyl-2-piperidinyl]methoxy]-2-[4-(3-pyridyl)-4-(2-1-pyrrolidinylethoxy)-1-piperidinyl]pyrimidine], the inhibition at 10 µM was 86%. Work on `COc1cc(C)c(S(=O)(=O)N(C)C(COc2ccnc(N3CCN(c4ccncc4)CC3)n2)c2ccccc2)c(C)c1` (centres unmarked) [H_CC-036, 4-methoxy-N,2,6-trimethyl-N-[1-phenyl-2-[[2-[4-(4-pyridyl)-1-piperazinyl]-4-pyrimidinyl]oxy]ethyl]benzenesulfonamide] yielded an inhibition at 10 µM of 71%. For `CN(C(COc1ccnc(N2CCC(OCCN3CCCC3)(c3cccnc3)CC2)n1)c1ccccc1)S(=O)(=O)c1ccc2ccccc2c1` (centres unmarked) [H_CC-038, N-methyl-N-[1-phenyl-2-[[2-[4-(3-pyridyl)-4-(2-1-pyrrolidinylethoxy)-1-piperidinyl]-4-pyrimidinyl]oxy]ethyl]-2-naphthalenesulfonamide], the inhibition at 10 µM was 70%. For `COc1cc(C)c(S(=O)(=O)N(C)CCOc2ccnc(N3CCC4(CCN(Cc5ccc(F)cc5)C4=O)CC3)n2)c(C)c1` [H_CC-039, N-[2-[[2-[3-[(4-fluorophenyl)methyl]-4-oxo-3,8-diazaspiro[4.5]decan-8-yl]-4-pyrimidinyl]oxy]ethyl]-4-methoxy-N,2,6-trimethylbenzenesulfonamide], the inhibition at 10 µM was 50%. `COc1cc(C)c(S(=O)(=O)N2CCC[C@H]2COc2ccnc(N3CCC(OCCN4CCCC4)(c4cccnc4)CC3)n2)c(C)c1` [H_CC-040, 4-[[(2S)-1-(4-methoxy-2,6-dimethylphenyl)sulfonyl-2-pyrrolidinyl]methoxy]-2-[4-(3-pyridyl)-4-(2-1-pyrrolidinylethoxy)-1-piperidinyl]pyrimidine] showed an inhibition at 10 µM of 51%. In the case of `COc1cc(C)c(S(=O)(=O)N2CCCC(Oc3ccnc(N4CCC(CCN5CCCCC5)CC4)n3)C2)c(C)c1` (centres unmarked) [H_CC-041, 4-[[1-(4-methoxy-2,6-dimethylphenyl)sulfonyl-3-piperidinyl]oxy]-2-[4-[2-(1-piperidyl)ethyl]-1-piperidinyl]pyrimidine], the inhibition at 10 µM was 48%. Compound `COc1cc(C)c(S(=O)(=O)N2CCCCC2COc2ccnc(N3CCCN(Cc4ccccn4)CC3)n2)c(C)c1` (centres unmarked) [H_CC-042, 1-[4-[[1-[(4-methoxy-2,6-dimethyl-phenyl)sulfonyl]-piperidin-2-yl]-methoxy]-pyrimidin-2-yl]-4-(pyridin-2-yl-methyl)-[1,4]diazepan] has an inhibition at 10 µM of 61%. In the case of `COc1cc(C)c(S(=O)(=O)N2CCCCC2COc2ccnc(N(C)CCN3CCC(c4ccccc4)(N(C)C)CC3)n2)c(C)c1` (centres unmarked) [H_CC-044, 2-(4-dimethylamino-4-phenyl-piperidin-1-yl)-ethyl-[4-[[1-[(4-methoxy-2,6-dimethyl-phenyl)sulfonyl]-piperidin-2-yl]-methoxy]-pyrimidin-2-yl]-methyl-amine], the inhibition at 10 µM was 102%. In the case of `CCCCC1(N(C)C)CCN(CCN(C)c2nccc(OCC3CCCCN3S(=O)(=O)c3c(C)cc(OC)cc3C)n2)CC1` (centres unmarked) [H_CC-045, 2-(4-butyl-4-dimethylamino-piperidin-1-yl)-ethyl-[4-[[1-[(4-methoxy-2,6-dimethyl-phenyl)sulfonyl]-piperidin-2-yl]-methoxy]-pyrimidin-2-yl]-methyl-amine], the inhibition at 10 µM was 96%.
